Data published in PubChem BioAssay AID328 (DTP/NCI, 2004).
Where “and” joins values, the source holds several entries; their conditions need not be identical. Equal values may be shown once. Toxic doses and inconclusive results are not listed. How the source made its calls: active means survival T/C of 150% or more; inactive means T/C below 125% in these data.

Tested on: BDF1 mice, P388 leukemia ip, median survival T/C
Assay: NCI In Vivo Anticancer Drug Screen. Data for tumor model P388 Leukemia (intraperitoneal) in B6D2F1 (BDF1) mice
Settings: endpoint: median survival time, higher = longer survival
Summary of the method: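 Compound-treated tumour-bearing mice were compared with vehicle-treated controls. Survival was recorded, and the value is the treated-group measurement divided by the control-group measurement (T/C).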

[1] = dose: 50.0 mg/kg/injection, schedule: Q01DX009 (ip), vehicle: Klucel (hydroxypropylcellulose) (HPC)
[2] = dose: 100.0 mg/kg/injection, schedule: Q01DX009 (ip), vehicle: Klucel (hydroxypropylcellulose) (HPC)
[3] = dose: 200.0 mg/kg/injection, schedule: Q01DX009 (ip), vehicle: Klucel (hydroxypropylcellulose) (HPC)
[4] = dose: 50.0 mg/kg/injection, schedule: Q04DX003 (ip), vehicle: saline with Tween-80
[5] = dose: 100.0 mg/kg/injection, schedule: Q04DX003 (ip), vehicle: saline with Tween-80
[6] = dose: 200.0 mg/kg/injection, schedule: Q04DX003 (ip), vehicle: saline with Tween-80
[7] = dose: 50.0 mg/kg/injection, schedule: Q04DX003 (ip), vehicle: water
[8] = dose: 100.0 mg/kg/injection, schedule: Q04DX003 (ip), vehicle: water
[9] = dose: 100.0 mg/kg/injection, schedule: Q01DX009 (ip), vehicle: saline with Tween-80
[10] = dose: 200.0 mg/kg/injection, schedule: Q01DX009 (ip), vehicle: saline with Tween-80

Measured: T/C

O=C(OCC1OC(n2cnc3c(=S)nc[nH]c32)C(OC(=O)c2ccc([N+](=O)[O-])cc2)C1OC(=O)c1ccc([N+](=O)[O-])cc1)c1ccc([N+](=O)[O-])cc1 (stereo unspecified)
inactive: [1] 100 % of control | [2] 109 % of control | [3] 109 % of control | dose: 400.0 mg/kg/injection, schedule: Q01DX009 (ip), vehicle: Klucel (hydroxypropylcellulose) (HPC) 118 % of control

CCCC(=O)C(CC)C(O)(C(F)(F)F)C(F)(F)F (stereo unspecified)
inactive: [4] 100 % of control | [5] 104 % of control | [6] 118 % of control

COc1ccc2c(c1)CCC1CC(=O)C=C21 (stereo unspecified)
inactive: dose: 100.0 mg/kg/injection, schedule: Q01DX001 (ip), vehicle: saline 105 % of control | dose: 200.0 mg/kg/injection, schedule: Q01DX001 (ip), vehicle: saline 90 % of control | dose: 400.0 mg/kg/injection, schedule: Q01DX001 (ip), vehicle: saline 100 % of control

COc1ccc(C2CCc3cc(OC)c(OC)cc3C2=O)cc1OC (stereo unspecified)
inactive: dose: 20.0 mg/kg/injection, schedule: Q01DX009 (ip), vehicle: saline with Tween-80 87 % of control | dose: 80.0 mg/kg/injection, schedule: Q01DX009 (ip), vehicle: saline with Tween-80 91 % of control | dose: 120.0 mg/kg/injection, schedule: Q01DX009 (ip), vehicle: saline with Tween-80 87 % of control

CN(C)Cc1cccc(N)c1
inactive: dose: 0.25 mg/kg/injection, schedule: Q01DX009 (ip), vehicle: water 120 % of control | dose: 0.5 mg/kg/injection, schedule: Q01DX009 (ip), vehicle: water 111 % of control | dose: 1.0 mg/kg/injection, schedule: Q01DX009 (ip), vehicle: water 113 % of control | dose: 2.0 mg/kg/injection, schedule: Q01DX009 (ip), vehicle: water 120 % of control | dose: 4.0 mg/kg/injection, schedule: Q01DX009 (ip), vehicle: water 92 % of control | dose: 12.5 mg/kg/injection, schedule: Q04DX003 (ip), vehicle: water 100 % of control | dose: 25.0 mg/kg/injection, schedule: Q04DX003 (ip), vehicle: water 100 % of control | [7] 91 % of control | [8] 97 % of control

O=C(O)CCCCCS
inactive: [1] 100 % of control | [2] 102 % of control | [3] 99 % of control

O=C(O)c1ccccc1NSc1ccccc1[N+](=O)[O-]
inactive: dose: 50.0 mg/kg/injection, schedule: Q01DX009 (ip), vehicle: saline with Tween-80 97 % of control | [9] 109 % of control | [10] 111 % of control

Cc1c(NC(=O)Nc2cccc(F)c2)c(=O)n(-c2ccccc2)n1C
inactive: [9] 120 % of control | [10] 95 % of control | dose: 400.0 mg/kg/injection, schedule: Q01DX009 (ip), vehicle: saline with Tween-80 90 % of control

C=CC(C)(C)C12CC3C(=O)N/C(=C\c4cnc[nH]4)C(=O)N3C1Nc1ccccc12 (stereo unspecified)
inactive: [1] 94 % of control | [2] 94 % of control | [3] 92 % of control

CCCC#CCOCC1CO1 (stereo unspecified)
inactive: [9] 116 % of control | [5] 100 % of control | [10] 120 % of control | [6] 100 % of control | dose: 400.0 mg/kg/injection, schedule: Q04DX003 (ip), vehicle: saline with Tween-80 95 % of control

COc1ccc(C=O)cc1OCc1ccccc1
inactive: dose: 6.25 mg/kg/injection, schedule: Q01DX009 (ip), vehicle: water 113 % of control | dose: 12.5 mg/kg/injection, schedule: Q01DX009 (ip), vehicle: water 104 % of control | dose: 25.0 mg/kg/injection, schedule: Q01DX009 (ip), vehicle: water 109 % of control | dose: 50.0 mg/kg/injection, schedule: Q01DX009 (ip), vehicle: water 101 % of control and 116 % of control | [7] 104 % of control | dose: 100.0 mg/kg/injection, schedule: Q01DX009 (ip), vehicle: water 95 % of control and 97 % of control | [8] 102 % of control and 117 % of control | dose: 200.0 mg/kg/injection, schedule: Q01DX009 (ip), vehicle: water 116 % of control | dose: 200.0 mg/kg/injection, schedule: Q04DX003 (ip), vehicle: water 102 % of control and 114 % of control | dose: 400.0 mg/kg/injection, schedule: Q04DX003 (ip), vehicle: water 117 % of control

CC(C)CC(Br)C(=O)NCC(=O)NC(Cc1ccccc1)C(=O)O (stereo unspecified)
inactive: [4] 95 % of control | [5] 100 % of control | [6] 95 % of control

O=C(O)C1CC[N-]CC1.O=C(O)C1CC[N-]CC1.[Cl][Pt+2]([Cl])([Cl])[Cl]
inactive: dose: 3.12 mg/kg/injection, schedule: Q01DX009 (ip), vehicle: saline 109 % of control | dose: 6.25 mg/kg/injection, schedule: Q01DX009 (ip), vehicle: saline 90 % of control | dose: 25.0 mg/kg/injection, schedule: Q01DX009 (ip), vehicle: saline 94 % of control | dose: 50.0 mg/kg/injection, schedule: Q01DX009 (ip), vehicle: saline 100 % of control
